Experimental data as given in publication PMC7884711, “Identification of efficient prokaryotic cell-penetrating peptides with applications in bacterial biotechnology” (Communications Biology, 2021).

Columns and labels:
E. coli DH5α cells [1] = experiment: Penetration efficiency of TAMRA-labeled CPPs, electroporation-based method, flow cytometry; format: cell-based, Escherichia coli; conditions: library CPPs, E. coli, electroporation, Tris buffer pH 7.5, 1 h, mean of n = 3–5
Text: (§1) (Fig. 2a). […] First, we prepared electrocompetent and chemically competent cells.

HEK293 cells = conditions: literature knowledge; cited from earlier work
Text: To date, mostly CPPs have been studied and utilized in mammalian cells, but in this study, we studied CPPs in bacteria, E. coli. Thus, it would be very useful to find the similarities and differences of CPPs between prokaryotes and eukaryotes.

E. coli DH5α cells [2] = experiment: Penetration efficiency of TAMRA-labeled CPPs, chemical (CaCl2) treatment method, flow cytometry; format: cell-based, Escherichia coli; conditions: TAMRA fluorescence intensity in E. coli, library screen of 98 CPPs
Text: as §1

E. coli DH5α cells [3] = experiment: Inhibition of bacterial cell growth by CPPs (Max OD600 relative to control); format: cell-based, Escherichia coli; conditions: for Max OD (%) (Figure 3f): E. coli DH5α diluted 1/1000 in LB, 5 μg TAMRA-CPP (0.1 μg/μL), OD600 monitored 18 h, max OD of treated cells / max OD of control cells
Protocol: E. coli DH5α cells were grown until OD600 = 1 at 37 °C with shaking at 200 rpm. […] Then, cell growth (OD600) was monitored for 18 h by using the Synergy^TM H1 hybrid multi-mode microplate reader (BioTek, Vermont, USA). As a control, we used E. coli cells that were not treated with CPPs.

Methylomonas sp. DH-1 = experiment: Marker gene excision using CPP-conjugated Cre recombinase; format: cell-based; conditions: Methylomonas sp. DH-1, 50 μL protein (0.05 μg/μL), electroporation, 4 mM NiCl2 selection
Protocol: For the marker gene excision experiment, the pIns-LKTL plasmid was transformed into Methylomonas sp. DH-1, and then the marker genes flanked with loxP sites (loxP-kan^R-tetA-loxP) were integrated into a non-coding region of the Methylomonas sp. DH-1 genome. To select correctly knocked-in cells, the transformed cells were grown on an NMS agar plate containing kanamycin (10 μg/mL) and 30% methane for 3–7 days. The knocked-in cells were harvested from the plate and washed twice with distilled water, and 50 μL of cell suspension was mixed with 50 μL of CPP-conjugated Cre recombinase (0.05 μg/μL). […] After electroporation, cells were incubated in two types of recovery buffers (20 mM Tris-HCl at pH 7.5 or NMS medium) for 3 h and then spread on NMS agar plates containing 4 mM NiCl2. The colonies grown on the NiCl2 plates were transferred to an NMS agar plate and a kanamycin-containing NMS agar plate to confirm the excision of the marker genes.

| Molecule | Penetration efficiency (TAMRA fluorescence in E. coli) (E. coli DH5α cells [1]) | Efficiency as CPP in mammalian cells (HEK293 cells) | Penetration efficiency (TAMRA FI) (E. coli DH5α cells [2]) | Max OD (%) (Figure 3f) (E. coli DH5α cells [3]; replicate 1) | Max OD (%) (Figure 3f) (E. coli DH5α cells [3]; replicate 2) | Max OD (%) (Figure 3f) (E. coli DH5α cells [3]; replicate 3) | Growth rate (%) (E. coli DH5α cells [3]; E. coli growth with CPP, relative to control) | Anti-bacterial activity (E. coli DH5α cells [3]; class (Cytotoxic / Safe), cutoff of 50%) | Marker excision efficiency (%) (Methylomonas sp. DH-1; recovery in NMS buffer 3 h, replicate 1) | Marker excision efficiency (%) (Methylomonas sp. DH-1; recovery in NMS buffer 3 h, replicate 2) | Marker excision efficiency (%) (Methylomonas sp. DH-1; recovery in NMS buffer 3 h, replicate 3) | Marker excision efficiency (%) (Methylomonas sp. DH-1; recovery in Tris-Cl buffer 3 h, replicate 1) | Marker excision efficiency (%) (Methylomonas sp. DH-1; recovery in Tris-Cl buffer 3 h, replicate 2) | Marker excision efficiency (%) (Methylomonas sp. DH-1; recovery in Tris-Cl buffer 3 h, replicate 3) |
| --- | --- | --- | --- | --- | --- | --- | --- | --- | --- | --- | --- | --- | --- | --- |
| KLPVM [CPP 63, TAMRA-labeled CPP of the 98-CPP library] | low efficiency | highly efficient | 26.6874 | 69.833% | 72.8601% | 66.2839% | 69.659% | Safe | – | – | – | – | – | – |
| Cre recombinase (No CPP): Cre recombinase without CPP, control (protein, UniProt P06956 1-343, looked up) Recombinase cre: MSNLLTVHQNLPALPVDATSDEVRKNLMDMFRDRQAFSEHTWKMLLSVCRSWAAWCKLNNRKWFPAEPEDVRDYLLYLQARGLAVKTIQQHLGQLNMLHRRSGLPRPSDSNAVSLVMRRIRKENVDAGERAKQALAFERTDFDQVRSLMENSDRCQDIRNLAFLGIAYNTLLRIAEIARIRVKDISRTDGGRMLIHIGRTKTLVSTAGVEKALSLGVTKLVERWISVSGVADDPNNYLFCRVRKNGVAAPSATSQLSTRALEGIFEATHRLIYGAKDDSGQRYLAWSGHSARVGAARDMARAGVSIPEIMQAGGWTNVNIVMNYIRNLDSETGAMVRLLEDGD | – | – | – | – | – | – | – | – | 10.353% | 9.156% | 9.01% | 1.75% | 2.19% | 1.75% |
